Where “and” joins values, the source holds several entries; their conditions need not be identical. Identical values can stand only once.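 Step 1: Grow cells in 96-well plates. Step 2: Expose to compound for 48 hours at 5 concentrations. Step 3: Interpolate endpoints linearly; if unreached, use highest concentration. GI50 marks 50% less growth. TGI: total growth inhibition.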
Columns and labels:
Assay in all cases: NCI anticancer screen, dose series, 48 h; in the data active = GI50 below about 0.43 µM; inactive = the rest
786-0 renal = test system: 786-0 renal
A498 renal = test system: A498 renal
A549 NSCLC = test system: A549 NSCLC
ACHN renal = test system: ACHN renal
BT-549 breast = test system: BT-549 breast
CAKI-1 renal = test system: CAKI-1 renal
CCRF-CEM leukemia = test system: CCRF-CEM leukemia
COLO 205 colon = test system: COLO 205 colon
DU-145 prostate = test system: DU-145 prostate
EKVX NSCLC = test system: EKVX NSCLC
HCC-2998 colon = test system: HCC-2998 colon
HCT-116 colon = test system: HCT-116 colon
HCT-15 colon = test system: HCT-15 colon
HL-60(TB) leukemia = test system: HL-60(TB) leukemia
HOP-62 NSCLC = test system: HOP-62 NSCLC
HOP-92 NSCLC = test system: HOP-92 NSCLC
HS 578T breast = test system: HS 578T breast
HT29 colon = test system: HT29 colon
IGROV1 ovarian = test system: IGROV1 ovarian
K-562 leukemia = test system: K-562 leukemia
KM12 colon = test system: KM12 colon
LOX IMVI melanoma = test system: LOX IMVI melanoma
M14 melanoma = test system: M14 melanoma
MALME-3M melanoma = test system: MALME-3M melanoma
MCF7 breast = test system: MCF7 breast
MDA-MB-231 breast = test system: MDA-MB-231 breast
MDA-MB-435 = test system: MDA-MB-435
MDA-N = test system: MDA-N
MOLT-4 leukemia = test system: MOLT-4 leukemia
NCI-H226 lung = test system: NCI-H226 lung
NCI-H23 lung = test system: NCI-H23 lung
NCI-H460 lung = test system: NCI-H460 lung
NCI-H522 lung = test system: NCI-H522 lung
NCI/ADR-RES ovarian = test system: NCI/ADR-RES ovarian
OVCAR-3 ovarian = test system: OVCAR-3 ovarian
OVCAR-4 ovarian = test system: OVCAR-4 ovarian
OVCAR-5 ovarian = test system: OVCAR-5 ovarian
OVCAR-8 ovarian = test system: OVCAR-8 ovarian
PC-3 prostate = test system: PC-3 prostate
RPMI-8226 leukemia = test system: RPMI-8226 leukemia
RXF 393 renal = test system: RXF 393 renal
SF-268 CNS = test system: SF-268 CNS
SF-295 CNS = test system: SF-295 CNS
SF-539 CNS = test system: SF-539 CNS
SK-MEL-2 melanoma = test system: SK-MEL-2 melanoma
SK-MEL-28 melanoma = test system: SK-MEL-28 melanoma
SK-MEL-5 melanoma = test system: SK-MEL-5 melanoma
SK-OV-3 ovarian = test system: SK-OV-3 ovarian
SN12C renal = test system: SN12C renal
SNB-19 CNS = test system: SNB-19 CNS
SNB-75 CNS = test system: SNB-75 CNS
SR leukemia = test system: SR leukemia
SW-620 colon = test system: SW-620 colon
T-47D breast = test system: T-47D breast
TK-10 renal = test system: TK-10 renal
U251 CNS = test system: U251 CNS
UACC-257 melanoma = test system: UACC-257 melanoma
UACC-62 melanoma = test system: UACC-62 melanoma
UO-31 renal = test system: UO-31 renal

CSCCC(N)P(C)(=O)O (stereo not drawn)
> 100 µM: TGI (786-0 renal) | TGI (A498 renal) | TGI (A549 NSCLC) | TGI (ACHN renal) | TGI (BT-549 breast) | TGI (CAKI-1 renal) | TGI (CCRF-CEM leukemia) | TGI (COLO 205 colon) | TGI (DU-145 prostate) | TGI (EKVX NSCLC) | TGI (HCC-2998 colon) | TGI (HCT-116 colon) | TGI (HCT-15 colon) | TGI (HL-60(TB) leukemia) | TGI (HOP-62 NSCLC) | TGI (HOP-92 NSCLC) | TGI (HS 578T breast) | TGI (HT29 colon) | TGI (IGROV1 ovarian) | TGI (K-562 leukemia) | TGI (KM12 colon) | TGI (LOX IMVI melanoma) | TGI (M14 melanoma) | TGI (MALME-3M melanoma) | TGI (MCF7 breast) | TGI (MDA-MB-231 breast) | TGI (MDA-MB-435) | TGI (MDA-N) | TGI (MOLT-4 leukemia) | TGI (NCI-H226 lung) | TGI (NCI-H23 lung) | TGI (NCI-H460 lung) | TGI (NCI-H522 lung) | TGI (NCI/ADR-RES ovarian) | TGI (OVCAR-3 ovarian) | TGI (OVCAR-4 ovarian) | TGI (OVCAR-5 ovarian) | TGI (OVCAR-8 ovarian) | TGI (PC-3 prostate) | TGI (RPMI-8226 leukemia) | TGI (RXF 393 renal) | TGI (SF-268 CNS) | TGI (SF-295 CNS) | TGI (SF-539 CNS) | TGI (SK-MEL-2 melanoma) | TGI (SK-MEL-28 melanoma) | TGI (SK-MEL-5 melanoma) | TGI (SK-OV-3 ovarian) | TGI (SN12C renal) | TGI (SNB-19 CNS) | TGI (SNB-75 CNS) | TGI (SR leukemia) | TGI (SW-620 colon) | TGI (T-47D breast) | TGI (TK-10 renal) | TGI (U251 CNS) | TGI (UACC-257 melanoma) | TGI (UACC-62 melanoma) | TGI (UO-31 renal)

Cc1cccc2c(N)c3cccc(C(=O)NCC[N+](C)(C)Cc4sccc4[N+](=O)[O-])c3nc12
18.6 µM: TGI (HT29 colon)
32.8 µM: TGI (M14 melanoma)
36 µM: TGI (UACC-62 melanoma)
35.5 µM: TGI (OVCAR-4 ovarian)
16.9 µM: TGI (A549 NSCLC)
14.4 µM: TGI (SF-539 CNS)
18.1 µM: TGI (ACHN renal)
33.4 µM: TGI (RXF 393 renal)
32 µM: TGI (NCI-H226 lung)
61 µM: TGI (LOX IMVI melanoma)
29.1 µM: TGI (NCI-H522 lung)
28.3 µM: TGI (HS 578T breast)
20.8 µM: TGI (HCC-2998 colon)
96.8 µM: TGI (HCT-116 colon)
30 µM: TGI (NCI-H23 lung)
41.3 µM: TGI (SK-OV-3 ovarian)
79.3 µM: TGI (COLO 205 colon)
28.2 µM: TGI (KM12 colon)
43.9 µM: TGI (CAKI-1 renal)
77 µM: TGI (PC-3 prostate)
> 100 µM: TGI (786-0 renal) | TGI (A498 renal) | TGI (CCRF-CEM leukemia) | TGI (DU-145 prostate) | TGI (EKVX NSCLC) | TGI (HCT-15 colon) | TGI (HL-60(TB) leukemia) | TGI (HOP-62 NSCLC) | TGI (HOP-92 NSCLC) | TGI (IGROV1 ovarian) | TGI (K-562 leukemia) | TGI (MDA-MB-435) | TGI (MOLT-4 leukemia) | TGI (NCI/ADR-RES ovarian) | TGI (OVCAR-3 ovarian) | TGI (SF-268 CNS) | TGI (SF-295 CNS) | TGI (SK-MEL-2 melanoma) | TGI (SK-MEL-28 melanoma) | TGI (SK-MEL-5 melanoma) | TGI (SN12C renal) | TGI (SNB-19 CNS) | TGI (SNB-75 CNS) | TGI (SR leukemia) | TGI (SW-620 colon) | TGI (T-47D breast) | TGI (TK-10 renal) | TGI (U251 CNS) | TGI (UACC-257 melanoma) | TGI (UO-31 renal)
27.7 µM: TGI (MALME-3M melanoma)
35.9 µM: TGI (OVCAR-8 ovarian)
66.2 µM: TGI (BT-549 breast)
33.1 µM: TGI (OVCAR-5 ovarian)
80.2 µM: TGI (MDA-N)
67.7 µM: TGI (MDA-MB-231 breast)
25.2 µM: TGI (MCF7 breast)

CN(C)CCOc1ccc(/C(=C(/CCCl)c2ccccc2)c2ccccc2)cc1
2.85 µM and 23.5 µM: TGI (CCRF-CEM leukemia)
22.6 µM and 28.5 µM: TGI (SNB-19 CNS)
1.8 µM: TGI (BT-549 breast)
21 µM and 29.4 µM: TGI (EKVX NSCLC)
13.4 µM and 39.3 µM: TGI (NCI-H226 lung)
5.07 µM: TGI (SK-OV-3 ovarian)
2.46 µM and 23.6 µM: TGI (K-562 leukemia)
13.8 µM and 30.9 µM: TGI (UO-31 renal)
5.09 µM and 33.5 µM: TGI (OVCAR-5 ovarian)
3.13 µM and 10 µM: TGI (SR leukemia)
17.4 µM and 33 µM: TGI (SF-268 CNS)
17.1 µM: TGI (HOP-92 NSCLC)
3.73 µM and 29.7 µM: TGI (CAKI-1 renal)
3.12 µM: TGI (A498 renal)
3.24 µM and 29.9 µM: TGI (A549 NSCLC)
1.4 µM: TGI (RXF 393 renal)
inactive: GI50 (786-0 renal) 0.906 µM | GI50 (A498 renal) 0.885 µM | GI50 (A549 NSCLC) 1.27 µM | GI50 (ACHN renal) 1.8 µM | GI50 (BT-549 breast) 0.976 µM | GI50 (CAKI-1 renal) 0.979 µM | GI50 (CCRF-CEM leukemia) 1.06 µM | GI50 (COLO 205 colon) 0.858 µM | GI50 (DU-145 prostate) 1.88 µM | GI50 (EKVX NSCLC) 1.81 µM | GI50 (HCC-2998 colon) 0.776 µM | GI50 (HCT-116 colon) 1.59 µM | GI50 (HCT-15 colon) 1.95 µM | GI50 (HL-60(TB) leukemia) 1.06 µM | GI50 (HOP-62 NSCLC) 0.993 µM | GI50 (HS 578T breast) 0.895 µM | GI50 (HT29 colon) 0.598 µM | GI50 (IGROV1 ovarian) 1.33 µM | GI50 (K-562 leukemia) 1.02 µM | GI50 (KM12 colon) 1.18 µM | GI50 (LOX IMVI melanoma) 0.819 µM | GI50 (M14 melanoma) 0.96 µM | GI50 (MALME-3M melanoma) 0.976 µM | GI50 (MCF7 breast) 0.565 µM | GI50 (MDA-MB-231 breast) 1.07 µM | GI50 (MDA-MB-435) 0.894 µM | GI50 (MOLT-4 leukemia) 1.12 µM | GI50 (NCI-H226 lung) 1.34 µM | GI50 (NCI-H23 lung) 1.42 µM | GI50 (NCI-H460 lung) 0.845 µM | GI50 (NCI-H522 lung) 0.9 µM | GI50 (NCI/ADR-RES ovarian) 1.6 µM | GI50 (OVCAR-3 ovarian) 0.928 µM | GI50 (OVCAR-4 ovarian) 1.47 µM | GI50 (OVCAR-5 ovarian) 1.52 µM | GI50 (OVCAR-8 ovarian) 1.08 µM | GI50 (PC-3 prostate) 0.901 µM | GI50 (RPMI-8226 leukemia) 1.03 µM | GI50 (RXF 393 renal) 0.698 µM | GI50 (SF-268 CNS) 1.51 µM | GI50 (SF-295 CNS) 1.02 µM | GI50 (SF-539 CNS) 0.891 µM | GI50 (SK-MEL-2 melanoma) 0.975 µM | GI50 (SK-MEL-28 melanoma) 0.912 µM | GI50 (SK-MEL-5 melanoma) 0.784 µM | GI50 (SK-OV-3 ovarian) 1.62 µM | GI50 (SN12C renal) 1.57 µM | GI50 (SNB-19 CNS) 1.85 µM | GI50 (SNB-75 CNS) 1.11 µM | GI50 (SR leukemia) 1.18 µM | GI50 (SW-620 colon) 0.898 µM | GI50 (T-47D breast) 0.841 µM | GI50 (TK-10 renal) 0.991 µM | GI50 (U251 CNS) 0.815 µM | GI50 (UACC-257 melanoma) 0.943 µM | GI50 (UACC-62 melanoma) 0.891 µM | GI50 (UO-31 renal) 0.9 µM
5.52 µM and 31.3 µM: TGI (NCI-H23 lung)
6.01 µM and 30.3 µM: TGI (SN12C renal)
7.87 µM and 28.1 µM: TGI (HCT-15 colon)
12.8 µM and 32.4 µM: TGI (KM12 colon)
5.33 µM and 30.4 µM: TGI (HCT-116 colon)
2.5 µM and 23.6 µM: TGI (RPMI-8226 leukemia)
4.95 µM and 30.7 µM: TGI (NCI/ADR-RES ovarian)
4.48 µM and 24.2 µM: TGI (SNB-75 CNS)
30.2 µM: TGI (MDA-N)
5.1 µM and 32.9 µM: TGI (OVCAR-4 ovarian)
6.55 µM and 31.9 µM: TGI (ACHN renal)
1.66 µM: TGI (UACC-62 melanoma)
18.1 µM and 33.2 µM: TGI (DU-145 prostate)
2.11 µM and 15 µM: TGI (HL-60(TB) leukemia)

From PubChem BioAssay (NCI)
